From ChEMBL document CHEMBL1127612, “Maleimidoethyl 3-(tri-n-butylstannyl)hippurate: a useful radioiodination reagent for protein radiopharmaceuticals to enhance target selective radioactivity localization” (J Med Chem, 1994)

Tests used:
Mus musculus [1] = assay: Tested for biodistribution of radioactivity after 24 hr of intravenous injection in mice feces; assay type: ADME, organism-based; conditions: in vivo
Mus musculus [2] = assay: Tested for biodistribution of radioactivity after 5 min of intravenous injection in mice kidneys; assay type: ADME, organism-based; conditions: in vivo
Mus musculus [3] = assay: Tested for biodistribution of radioactivity after 1 hr of intravenous injection in mice kidneys; assay type: ADME, organism-based, Kidney; conditions: in vivo
Mus musculus [4] = assay: Tested for biodistribution of radioactivity after 24 hr of intravenous injection in mice liver; assay type: ADME, organism-based; conditions: in vivo
Mus musculus [5] = assay: Tested for biodistribution of radioactivity after 6 hr of intravenous injection in mice intestines; assay type: ADME, organism-based, Intestine; conditions: in vivo
Mus musculus [6] = assay: Tested for biodistribution of radioactivity after 6 hr of intravenous injection in mice stomach; assay type: ADME, organism-based; conditions: in vivo
Mus musculus [7] = assay: Tested for biodistribution of radioactivity after 5 min of intravenous injection in mice liver; assay type: ADME, organism-based; conditions: in vivo
Mus musculus [8] = assay: Tested for biodistribution of radioactivity after 3h of intravenous injection in mice neck; assay type: ADME, organism-based; conditions: in vivo
Mus musculus [9] = assay: Tested for biodistribution of radioactivity after 5 min of intravenous injection in mice stomach; assay type: ADME, organism-based; conditions: in vivo
Mus musculus [10] = assay: Tested for biodistribution of radioactivity after 3h of intravenous injection in mice spleen; assay type: ADME, organism-based; conditions: in vivo
Mus musculus [11] = assay: Tested for biodistribution of radioactivity after 1 hr of intravenous injection in mice neck; assay type: ADME, organism-based; conditions: in vivo
Mus musculus [12] = assay: Tested for biodistribution of radioactivity after 3h of intravenous injection in mice kidneys; assay type: ADME, organism-based, Kidney; conditions: in vivo
Mus musculus [13] = assay: Tested for biodistribution of radioactivity after 1 hr of intravenous injection in mice liver; assay type: ADME, organism-based; conditions: in vivo
Mus musculus [14] = assay: Tested for biodistribution of radioactivity after 3h of intravenous injection in mice liver; assay type: ADME, organism-based; conditions: in vivo
Mus musculus [15] = assay: Tested for biodistribution of radioactivity after 5 min of intravenous injection in mice blood; assay type: ADME, organism-based; conditions: in vivo
Mus musculus [16] = assay: Tested for biodistribution of radioactivity after 24 hr of intravenous injection in mice blood; assay type: ADME, organism-based; conditions: in vivo
Mus musculus [17] = assay: Tested for biodistribution of radioactivity after 6 hr of intravenous injection in mice blood; assay type: ADME, organism-based; conditions: in vivo
Mus musculus [18] = assay: Tested for biodistribution of radioactivity after 24 hr of intravenous injection in mice neck; assay type: ADME, organism-based; conditions: in vivo
Mus musculus [19] = assay: Tested for biodistribution of radioactivity after 24 hr of intravenous injection in mice intestines; assay type: ADME, organism-based, Intestine; conditions: in vivo
Mus musculus [20] = assay: Tested for biodistribution of radioactivity after 24 hr of intravenous injection in mice kidneys; assay type: ADME, organism-based, Kidney; conditions: in vivo
Mus musculus [21] = assay: Tested for biodistribution of radioactivity after 3h of intravenous injection in mice intestines; assay type: ADME, organism-based, Intestine; conditions: in vivo
Mus musculus [22] = assay: Tested for biodistribution of radioactivity after 6 hr of intravenous injection in mice neck; assay type: ADME, organism-based; conditions: in vivo
Mus musculus [23] = assay: Tested for biodistribution of radioactivity after 30 min of intravenous injection in mice lintestines; assay type: ADME, organism-based, Intestine; conditions: in vivo, 0.5 h
Mus musculus [24] = assay: Tested for biodistribution of radioactivity after 5 min of intravenous injection in mice neck; assay type: ADME, organism-based; conditions: in vivo
Mus musculus [25] = assay: Tested for biodistribution of radioactivity after 6 hr of intravenous injection in mice urine; assay type: ADME, organism-based; conditions: in vivo
Mus musculus [26] = assay: Tested for biodistribution of radioactivity after 30 min of intravenous injection in mice kidneys; assay type: ADME, organism-based; conditions: in vivo, 0.5 h
Mus musculus [27] = assay: Tested for biodistribution of radioactivity after 30 min of intravenous injection in mice blood; assay type: ADME, organism-based; conditions: in vivo, 0.5 h
Mus musculus [28] = assay: Tested for biodistribution of radioactivity after 30 min of intravenous injection in mice spleen; assay type: ADME, organism-based; conditions: in vivo, 0.5 h
Mus musculus [29] = assay: Tested for biodistribution of radioactivity after 30 min of intravenous injection in mice stomach; assay type: ADME, organism-based; conditions: in vivo, 0.5 h
Mus musculus [30] = assay: Tested for biodistribution of radioactivity after 30 min of intravenous injection in mice liver; assay type: ADME, organism-based; conditions: in vivo, 0.5 h
Mus musculus [31] = assay: Tested for biodistribution of radioactivity after 24 hr of intravenous injection in mice stomach; assay type: ADME, organism-based; conditions: in vivo
Mus musculus [32] = assay: Tested for biodistribution of radioactivity after 6 hr of intravenous injection in mice spleen; assay type: ADME, organism-based; conditions: in vivo
Mus musculus [33] = assay: Tested for biodistribution of radioactivity after 5 min of intravenous injection in mice intestines; assay type: ADME, organism-based, Intestine; conditions: in vivo
Mus musculus [34] = assay: Tested for biodistribution of radioactivity after 24 hr of intravenous injection in mice urine; assay type: ADME, organism-based; conditions: in vivo
Mus musculus [35] = assay: Tested for biodistribution of radioactivity after 6 hr of intravenous injection in mice liver; assay type: ADME, organism-based; conditions: in vivo
Mus musculus [36] = assay: Tested for biodistribution of radioactivity after 5 min of intravenous injection in mice spleen; assay type: ADME, organism-based; conditions: in vivo
Mus musculus [37] = assay: Tested for biodistribution of radioactivity after 1 hr of intravenous injection in mice intestines; assay type: ADME, organism-based, Intestine; conditions: in vivo
Mus musculus [38] = assay: Tested for biodistribution of radioactivity after 6 hr of intravenous injection in mice feces; assay type: ADME, organism-based; conditions: in vivo
Mus musculus [39] = assay: Tested for biodistribution of radioactivity after 1 hr of intravenous injection in mice stomach; assay type: ADME, organism-based; conditions: in vivo
Mus musculus [40] = assay: Tested for biodistribution of radioactivity after 30 min of intravenous injection in mice neck; assay type: ADME, organism-based; conditions: in vivo, 0.5 h
Mus musculus [41] = assay: Tested for biodistribution of radioactivity after 6 hr of intravenous injection in mice kidneys; assay type: ADME, organism-based, Kidney; conditions: in vivo
Mus musculus [42] = assay: Tested for biodistribution of radioactivity after 3h of intravenous injection in mice stomach; assay type: ADME, organism-based; conditions: in vivo
Mus musculus [43] = assay: Tested for biodistribution of radioactivity after 24 hr of intravenous injection in mice spleen; assay type: ADME, organism-based; conditions: in vivo
Mus musculus [44] = assay: Tested for biodistribution of radioactivity after 1 hr of intravenous injection in mice blood; assay type: ADME, organism-based; conditions: in vivo
Mus musculus [45] = assay: Tested for biodistribution of radioactivity after 1 hr of intravenous injection in mice spleen; assay type: ADME, organism-based; conditions: in vivo
Mus musculus [46] = assay: Tested for biodistribution of radioactivity after 3h of intravenous injection in mice blood; assay type: ADME, organism-based; conditions: in vivo

- Dose/organ (Mus musculus [1]): 3.22%
- Dose/organ (Mus musculus [2]): 0.01%
- Dose/organ (Mus musculus [3]): 1.73%
- Dose/organ (Mus musculus [4]): 0.37%
- Dose/organ (Mus musculus [5]): 3.06%
- Dose/organ (Mus musculus [6]): 13.22%
- Dose/organ (Mus musculus [7]): 92.49%
- Dose/organ (Mus musculus [8]): 0.25%
- Dose/organ (Mus musculus [9]): 0.25%
- Dose/organ (Mus musculus [10]): 0.1%
- Dose/organ (Mus musculus [11]): 0.34%
- Dose/organ (Mus musculus [12]): 0.83%
- Dose/organ (Mus musculus [13]): 3.68%
- Dose/organ (Mus musculus [14]): 1.44%
- Dose/g (Mus musculus [15]): 0.15%
- Dose/g (Mus musculus [16]): 0.12%
- Dose/g (Mus musculus [17]): 1.59%
- Dose/organ (Mus musculus [18]): 0.01%
- Dose/organ (Mus musculus [19]): 0.21%
- Dose/organ (Mus musculus [20]): 0.04%
- Dose/organ (Mus musculus [21]): 3.43%
- Dose/organ (Mus musculus [22]): 0.21%
- Dose/organ (Mus musculus [23]): 8.28%
- Dose/organ (Mus musculus [24]): 0.04%
- Dose/organ (Mus musculus [25]): 26.84%
- Dose/organ (Mus musculus [26]): 2.07%
- Dose/g (Mus musculus [27]): 5.35%
- Dose/organ (Mus musculus [28]): 0.3%
- Dose/organ (Mus musculus [29]): 15.65%
- Dose/organ (Mus musculus [30]): 18.72%
- Dose/organ (Mus musculus [31]): 0.11%
- Dose/organ (Mus musculus [32]): 0.06%
- Dose/organ (Mus musculus [33]): 0.16%
- Dose/organ (Mus musculus [34]): 79.66%
- Dose/organ (Mus musculus [35]): 1.13%
- Dose/organ (Mus musculus [36]): 0.06%
- Dose/organ (Mus musculus [37]): 6.73%
- Dose/organ (Mus musculus [38]): 0.31%
- Dose/organ (Mus musculus [39]): 25.55%
- Dose/organ (Mus musculus [40]): 0.7%
- Dose/organ (Mus musculus [41]): 0.57%
- Dose/organ (Mus musculus [42]): 17.5%
- Dose/organ (Mus musculus [43]): 0.02%
- Dose/g (Mus musculus [44]): 5.14%
- Dose/organ (Mus musculus [45]): 0.23%
- Dose/g (Mus musculus [46]): 1.4%
SMILES: CCc1ccc(O)c(I)c1
